SMILES strings stand for the structures.

Common to all, as to type: cell-based, murine
Data set [1] deals with macrophage RAW264.7 cells. Kind of data set: Cytotoxicity of veratric acid, WST-1 cell viability. As to conditions: up to 200 μM, 3 h pretreatment then 100 ng/ml LPS 24 h. The method, then:
Cell lines used to evaluate cytotoxicity of a veratric acid were macrophage RAW264.7, human embryonic kidney (HEK) 293, and human keratinocyte (HaCaT) cells. For a cytotoxicity experiment, the cell lines were first incubated in a culture solution of DMEM containing 10% fetal bovine serum (FBS) and 1% penicillin (100 U/ml)/streptomycin (100 U/ml) under a condition of 5% CO2 at a temperature of 37° C. Then, the incubated cells were seeded in a 96-well plate at 1×10^5 cells/well. Each of the cells was treated at different concentrations (0, 50, 100, 150 and 200 μM) of a veratric acid and incubated for 3 hours. After the incubation, the cells were stimulated with 100 ng/ml LPS contained in a culture medium for 24 hours. Thereafter, the culture solution was removed, and then, the cells were treated with a solution of WST-1® (Daeil Lab service, Korea) and further incubated for 3 hours. An optical density of the culture solution was measured at 460 nm by using an ELIZA analyzer to analyze cell viability.

The subject of data set [2] is nitric oxide production in macrophage RAW264.7 cells. Kind of data set: Nitric oxide (NO) production, Griess reagent. The conditions noted are these: LPS 100 ng/ml in combination with veratric acid 50-200 μM, inhibition in proportion to concentration (FIG. 3B). The method, then: In order to confirm whether or not the veratric acid has an activity of inhibiting production of nitric oxide that causes inflammation, the following experiment was performed. The prepared macrophage RAW264.7 cells were seeded in a 96-well plate at 1×10^5 cells/well. Each of the cells was treated at different concentrations (0, 50, 100, 150 and 200 μM) of the veratric acid and incubated for 3 hours. The cells were incubated in a culture medium containing 100 ng/ml LPS for 24 hours. Thereafter, a culture solution was acquired. After the culture solution was allowed to react with a Griess reagent, a production level of nitric oxide induced by the LPS was measured at 540 nm by using the ELIZA analyzer (BD PharMingen, USA).

The subject of data set [3] is inducible nitric oxide synthase (iNOS). As to the kind of experiment: iNOS gene and protein expression, RT-PCR and Western blot. As to conditions: LPS-stimulated RAW264.7 cells, concentration dependent (FIG. 4). As to the method:
Thus, the present inventors performed an RT-PCR and a Western blot analysis as follows in order to confirm whether or not the veratric acid's mechanism of inhibiting nitric oxide production was operated by regulating expression and protein activity of iNOS as an inducible nitric oxide synthase involved in nitric oxide production.
The prepared murine macrophage RAW264.7 cells treated with the LPS in combination with the veratric acid were used. RNA was extracted and separated from the incubated cells by using 2-mercaptoethanol (Sigma, USA). An RT-PCR was performed by using primers listed in Table 1 with the extracted RNA as a template. Then, after electrophoresis, an expression level of a gene was checked with ultraviolet light.
The prepared murine macrophage cells treated with the LPS in combination with the veratric acid were collected and lysed by using a lysis buffer {50 mM Tris-Cl [pH7.5], 150 mM NaCl, 1 mM DTT, 0.5% NP-40, 1% Triton X-100, 1% deoxycholate, 0.1% SDS and a cocktail of proteinase inhibitors [1 mM PMSF, 1 mM EDTA, 11 μM aprotinin, 11 μM leupeptin, and 11 μM pepstatin A (Intron Biotechnology, Gyeonggi, Korea)]}. Protein samples were electrophoresed by 12% SDS-PAGE and then electrically transferred to a nitrocellulose membrane. Thereafter, the protein samples were allowed to react with primary antibodies capable of recognizing the iNOS. […]

Another data set concerns cyclooxygenase-2 (COX-2). Kind of data set: COX-2 gene and protein expression, RT-PCR and Western blot. The conditions noted are these: LPS-stimulated RAW264.7 cells.
In the next data set the test system is IL-1β. Kind of data set: IL-1β protein expression, Western blot. As to conditions: LPS-stimulated RAW264.7 cells, Western blot (FIG. 6).
The test system of another data set is IL-6. As to the kind of experiment: IL-6 protein expression, Western blot. As to conditions: LPS-stimulated RAW264.7 cells, Western blot (FIG. 6).
In a further data set the test system is TNF-α. Kind of data set: TNF-α protein expression, Western blot. As to conditions: LPS-stimulated RAW264.7 cells, Western blot (FIG. 6).
The next data set concerns IFN-γ. Kind of data set: IFN-γ protein expression, Western blot. As to conditions: LPS-stimulated RAW264.7 cells, Western blot (FIG. 6).
A further data set concerns STAT-1. Kind of data set: Phosphorylation of STAT-1, Western blot. As to conditions: LPS-stimulated macrophage cells, concentration dependent (FIG. 7). The method, then:
(§1) The prepared murine macrophage cells treated with the LPS in combination with the veratric acid were collected and lysed by using a lysis buffer {50 mM Tris-Cl [pH7.5], 150 mM NaCl, 1 mM DTT, 0.5% NP-40, 1% Triton X-100, 1% deoxycholate, 0.1% SDS and a cocktail of proteinase inhibitors [1 mM PMSF, 1 mM EDTA, 11 μM aprotinin, 11 μM leupeptin, and 11 μM pepstatin A (Intron Biotechnology, Gyeonggi, Korea)]}. Protein samples were electrophoresed by 12% SDS-PAGE and then electrically transferred to a nitrocellulose membrane. Thereafter, the protein samples were allowed to react with primary antibodies capable of recognizing the iNOS. After the membrane was washed and then allowed to react with horseradish peroxidase-linked […] or […] (Cell Signaling Technology Inc., USA). Then, signals were checked by using an enhanced chemiluminescent (ECL) detection system (Pierce, USA).
It is known that secreted IFN-γ promotes phosphorylation of STAT-1 and induces transcription of iNOS, and an activity of the iNOS causes production of nitric oxide and induces inflammation. Therefore, protein expression levels of STAT-1 and phosphorylated STAT-1 were checked through a Western blot analysis performed in the same manner as Example 3 in order to confirm an effect of the veratric acid, which reduced the protein level of the IFN-γ in Example 5, on phosphorylation of STAT-1.

Data set [4] concerns NF-κB. Kind of data set: Phosphorylation of NF-κB, Western blot. The conditions noted are these: LPS-stimulated macrophage cells, reduction in proportion to concentration (FIGS. 8A, 8B). The method, then:
as §1
(§2) An NF-κB is a transcription factor and when the NF-κB is activated by phosphorylated IκBα, it is moved into a nucleus and bound to a promoter site such that target molecules can be transcribed. Thus, the present inventors performed a Western blot analysis and an immunofluorescent microscopy as follows in order to confirm whether or not the veratric acid affected protein levels of the NF-κB and the IκBα. […]

Another data set relates to IκBα. As to the kind of experiment: Phosphorylation of IκBα, Western blot. As to conditions: LPS-stimulated macrophage cells, Western blot (FIGS. 8A, 8B). The method, then: as §1, §2
For data set [5], the system named is NF-κB. As to the kind of experiment: Intracellular distribution of NF-κB, immunofluorescent microscopy. The conditions noted are these: 100 μM veratric acid 1 hour, LPS 12 hours, immunofluorescent microscopy (FIGS. 8C, 8D). From the text: An NF-κB is a transcription factor and when the NF-κB is activated by phosphorylated IκBα, it is moved into a nucleus and bound to a promoter site such that target molecules can be transcribed. Thus, the present inventors performed a Western blot analysis and an immunofluorescent microscopy as follows in order to confirm whether or not the veratric acid affected protein levels of the NF-κB and the IκBα. That is, protein expression levels of the NF-κB and the IκBα in the LPS-stimulated macrophage cells were checked through the Western blot analysis performed in the same manner as Example 3, and in the immunofluorescent microscopy, after 100 μM veratric acid was treated for 1 hour, LPS was incubated for 12 hours, and 4,6-diamidino-2-phenylindole (DAPI) was treated at room temperature for 15 minutes, the cells were immobilized with 4% formaldehyde and then distribution of the NF-κB in the cells was checked visually.

The next data set has as its system JNK. As to the kind of experiment: Phosphorylation of JNK, Western blot. The conditions noted are these: LPS-stimulated macrophage cells, Western blot (FIG. 9). As to the method: as §1
(§3) Protein expression levels of JNK, p38, and ERK1/2 in the LPS-stimulated macrophage cells were checked through a Western blot analysis performed in the same manner as Example 3 in order to confirm whether or not the veratric acid affected an activity of MAPK as a superordinate signaling system that produced pro-inflammatory cytokines.

The next data set relates to p38. Kind of data set: Phosphorylation of p38, Western blot. As to conditions: LPS-stimulated macrophage cells, Western blot (FIG. 9); stronger effect than on JNK, ERK1/2. As to the method: as §1, §3
Another data set relates to ERK1/2. Kind of data set: Phosphorylation of ERK1/2, Western blot. The conditions noted are these: LPS-stimulated macrophage cells, Western blot (FIG. 9). The method, then: as §1, §3
A further data set concerns GSK-3β. As to the kind of experiment: Phosphorylation of GSK-3β, Western blot. As to conditions: LPS-stimulated macrophage cells, concentration dependent (FIG. 10). As to the method:
as §1
A protein expression level of GSK-3β in the LPS-stimulated macrophage cells was checked through a Western blot analysis performed in the same manner as Example 3 in order to confirm whether or not the veratric acid affected phosphorylation of the GSK-3β as a superordinate signaling system that caused inflammatory reactions.

A further data set deals with c-Raf. As to the kind of experiment: Phosphorylation of c-Raf at Ser259 and Ser338, Western blot. The conditions noted are these: LPS-stimulated macrophage cells, Western blot (FIG. 11). The method, then:
as §1
If c-Raf (RAF proto-oncogene serine/threonine-protein kinase) is phosphorylated at Ser^338, the c-Raf induces expression of iNOS. Thus, the present inventors checked a protein level of the c-Raf in the LPS-stimulated macrophage cells and a phosphorylated protein level at Ser^259 and Ser^338 of the c-Raf through a Western blot analysis performed in the same manner as Example 3 in order to confirm whether or not the veratric acid affected the protein level of the c-Raf.

For `COc1ccc(C(=O)O)cc1OC` [veratric acid, 3,4-Dimethoxybenzoic acid], the “cytotoxicity (cell viability)” value in [1] was “did not show cytotoxicity”. The “excessive production of nitric oxide” value in data set [2] is “inhibited”. The “gene expression of iNOS” value in [3] (RT-PCR) was “decreased or inhibited strongly”. Also, the “protein expression of iNOS” value in data set [3] (Western blot) is reported as “decreased or inhibited strongly”. Moreover, the “gene expression of COX-2” value in the data set on cyclooxygenase-2 (COX-2) (RT-PCR (FIG. 5)) is reported as “did not affect”. Also, in the data set with cyclooxygenase-2 (COX-2) (Western blot (FIG. 5)), the “protein expression of COX-2” value is “did not affect”. Further, in the data set with IL-1β, the “protein expression level of IL-1β” value was “reduced”. Moreover, in the data set on IL-6, the “protein expression level of IL-6” value is “did not affect”. The “protein expression level of TNF-α” value in the data set on TNF-α is “did not affect”. In addition, the “protein expression level of IFN-γ” value with IFN-γ was “reduced”. The “phosphorylation of the STAT-1” value in the data set on STAT-1 is “reduced”. Further, the “protein expression of the phosphorylated NF-κB” value in the data set on NF-κB [4] is recorded as “remarkably reduced”. For the same molecule, the “phosphorylated IκBα” value with IκBα was “reduced”. In addition, in the data set on NF-κB [5], the “movement of the NF-κB into the nucleus” value is reported as “inhibited”. In addition, the “phosphorylation of the JNK” value in the data set with JNK is listed as “inhibited”. In addition, the “phosphorylation of the p38” value in the data set on p38 was “inhibited”. Moreover, in the data set with ERK1/2, the “phosphorylation of the ERK1/2” value was “inhibited”. In addition, the “phosphorylation of the GSK-3β” value in the data set on GSK-3β is “remarkably inhibited”. In addition, in the data set with c-Raf, the “phosphorylation at Ser259 of the c-Raf” value was “did not affect” and the “phosphorylation at Ser338 of the c-Raf” value was “inhibited”.
